The values that follow come from a melting point compilation (Tetko et al.).

What is called melting point is the temperature of the solid-liquid transition. In turn, `CN(C1=NC(=Cc2ccccc2)C(=O)N1c1ccccc1)c1ccccc1` had a melting point of 207 °C.

In turn, `c1ccc(-c2nnc(-c3ccccn3)c(-c3ccccn3)n2)nc1` registered a melting point of 186 to 188 °C.

As for `FC(F)(F)c1nn(CN2CCCCC2)c(=S)n1N=Cc1ccc2c(c1)OCO2`, the melting point worked out at 122 °C.

Turning to `Cc1oc(C(C)(C)C)cc1C(=O)Cl`, the melting point was 41 to 44 °C.

For `N#CC1=C(N)Oc2[nH]nc(C(F)(F)F)c2C1c1ccc(O)cc1` (stereo unspecified), the melting point is 197 °C.

For `COc1ccc(-c2ccc(S(=O)(=O)NC(Cc3ccccc3)C(=O)O)cc2)cc1` (stereo unspecified), the melting point was found to be 179 °C.

For `N#CC1=Cc2ccccc2C1`, the melting point worked out at 40 °C.

`O=C(O)c1cccc(C(=O)O)c1O` had a melting point of 244 °C.

On to `O=C1CCC(=O)N1CCO`, for which the melting point came to 60 °C.

As to `CC(=O)c1cc[nH]c1`, the melting point fell in the range of 112 to 114 °C.

On to `Cn1cc(C=O)c(N)n1`, for which the melting point lay within 133 to 134 °C.

In turn, `CCCCCCCCOc1ccccc1` showed a melting point of 8 °C.

`O=C(CCc1ccccc1)/C(=N\O)c1ccccc1`: the melting point was in the range of 129 to 130 °C.

`O=C1c2ccccc2C(=O)N1Br`: the melting point came to 206 °C.

The molecule `COC(=O)c1ccc(OC)c(S(=O)(=O)Cl)c1` yielded a melting point of 126 to 128 °C.

The molecule `[O-][P+](c1ccccc1)(c1ccccc1)C1C=C(c2ccccc2)OC2=C1CCCC2` (stereo unspecified) came in with a melting point of 177 °C.

Turning to `CCCCCc1ccc(NC(=O)c2ccc(C)cc2)cc1`, the melting point amounted to 129 °C.

Consider `C=C(C)C(C)(C)CC`, for which the melting point is -69 °C.

In turn, `CC1=NN(CN2CCCCC2)C(=O)/C1=N\Nc1cccc(O)c1` had a melting point of 204 to 205 °C.

As for `BrC1C2CC3CC(C2)CC1C3` (stereo unspecified), the melting point is 139 °C.

Molecule `C=C(C)c1ccc(C(C)C)cc1` registered a melting point of -30.6 °C.

With `COc1ccc(C=CC(=O)c2ccc(F)cc2)cc1OC`, the melting point fell in the range of 88 to 93 °C.

In turn, `S=C1NCCN1` gave a melting point of 203 °C.

On to `Cc1ccc(N2CSc3nnc(-c4ccc([N+](=O)[O-])cc4)n3C2)cc1`, for which the melting point is 226 °C.

In turn, `COc1ccc(-c2coc3cc(O)ccc3c2=O)cc1` came in with a melting point of 256 °C.

`CC(=O)Nc1ccc(/C=C/c2ccc([N+](=O)[O-])cc2)c([N+](=O)[O-])c1` gave a melting point of 236 °C.

On to `O=C(O)c1ccc2c(c1)OCCCO2`, for which the melting point is 143 to 146 °C.

Regarding `O=CN(c1ccccc1)c1ccccc1`, the melting point came to 73.5 °C.

In the case of `CSc1nc(NS(=O)(=O)c2ccc(C)cc2)c(C#N)c(-c2ccccc2)c1Br`, the melting point fell in the range of 212 to 216 °C.

Molecule `COC(=O)c1c(C)n[nH]c1-c1cc(C)on1` returned a melting point of 168 to 170 °C.

For the molecule `CN(C)S(=O)N(C)C`, the melting point came out at 31 °C.

Turning to `O=C1OC2(c3ccccc31)c1cc(Br)c(O)c(Br)c1Oc1c2cc(Br)c(O)c1Br`, the melting point amounted to 295 °C.

`CC(=O)Nc1ccc(N(Nc2ccccc2)C(C)=O)cc1`: the melting point is 199 °C.

As for `C=CCC1(c2ccccc2)C(=O)NC(=O)NC1=O`, the melting point was determined as 156 °C.

`CC(=O)C(=O)Nc1ccc(Br)cc1` showed a melting point of 166 °C.

`COc1ccc(/C=C/c2ccc([N+](=O)[O-])cc2[N+](=O)[O-])cc1O` showed a melting point of 190 to 191 °C.

Consider `CC(=O)NNC(N)=S`, for which the melting point lay within 165 to 170 °C.

Molecule `CC(C)Oc1cccc(OC(C)C)c1-c1ccccc1P(C1CCCCC1)C1CCCCC1` returned a melting point of 124 °C.

The molecule `Cc1ccc(C(=O)C2=NOC3C(=O)N(c4ccc(O)cc4)C(=O)C23)cc1` (stereo unspecified) gave a melting point of 120 °C.

`Cc1oc(S(=O)(=O)N(C)C)cc1C(=O)O` showed a melting point of 169 °C.

As to `O=S(=O)(Cl)c1ccc(F)cc1C(F)(F)F`, the melting point stood at 50 °C.

For the molecule `O=C(C=Cc1ccc(O)c(O)c1)OC1CC(O)(C(=O)O)CC(O)C1O` (stereo unspecified), the melting point fell in the range of 205 to 209 °C.

Consider `Cc1nc(/C(C#N)=C/c2ccc(F)cc2)sc1/N=N/c1c(Br)cc(Br)cc1Br`, for which the melting point was determined as 170 °C.

For the molecule `Cn1cncc1C(=O)O`, the melting point lay within 247 to 248 °C.

Turning to `CCOC(=O)c1nn(-c2ccc(C)cc2)c(C)c1C(=O)C1=NOC2C(=O)N(c3ccccc3C)C(=O)C12` (stereo unspecified), the melting point turned out to be 200 °C.

In turn, `Cc1nc(-c2ccc(S(=O)(=O)N(C)C)cc2)c(-c2ccc(S(=O)(=O)N(C)C)cc2)o1` showed a melting point of 208 to 211 °C.

`CSc1nc2cc(N=Cc3ccc4c(c3)OCO4)ccc2[nH]1` came in with a melting point of 213 to 215 °C.

For the molecule `CC(=O)C1(O)CCC2C3CC(C)C4=CC(=O)C=CC4(C)C3(F)C(O)CC21C` (stereo unspecified), the melting point worked out at 297 °C.

`Cc1cc(O)c2ccccc2c1O` showed a melting point of 169 °C.

In turn, `O=[N+]([O-])c1ccc(S(=O)(=O)N2CCOCC2)cc1` came in with a melting point of 173 to 175 °C.

In turn, `Cc1cc(Cl)ccc1NC(=S)N(C)C` displayed a melting point of 175 °C.

`NC(=S)c1cccs1` came in with a melting point of 108 °C.

Molecule `O=C(O)c1cccc(I)c1C(=O)O` had a melting point of 178 to 182 °C.

Molecule `CC(=O)OC1CC2C(C)C(=O)C3(C(O)CC4C(C)(C)CCC(OC(C)=O)C4(C)C13)C2O` (stereo unspecified) yielded a melting point of 246 °C.

As for `S=C=Nc1ccc(-n2cccn2)cc1`, the melting point is 97 to 99 °C.

In turn, `O=C1c2ccccc2C(=O)N1SC(Cl)(Cl)Cl` had a melting point of 178 °C.

`CSc1nc(N)nc(C(C)C)n1` displayed a melting point of 127 to 130 °C.

Regarding `Clc1ccc(Br)c(Cl)n1`, the melting point worked out at 70 °C.

Consider `O=C(NC(=C(NC(=O)c1ccccc1)c1ccccc1)c1ccccc1)c1ccccc1`, for which the melting point was 100 °C.

The molecule `CCOC(=O)C(=CN(O)c1ccccc1)c1ccccc1` came in with a melting point of 75 °C.

The molecule `CNc1c(C=O)c(=O)n(C)c(=O)n1C` returned a melting point of 203 °C.

On to `CCCCc1nc(C=O)c(Cl)[nH]1`, for which the melting point was in the range of 98 to 100 °C.

In the case of `COc1ccc(Cl)cc1C=O`, the melting point worked out at 77 °C.

`CC(=O)C[C@@]1(O)C(=O)c2ccccc2-c2ccccc21` gave a melting point of 66.8 °C.

As to `NS(=O)(=O)c1c(F)cccc1F`, the melting point was found to be 190 °C.

`OC(O)C(Cl)(Cl)Cl` displayed a melting point of 57 °C.

With `Fc1cc2nsnc2cc1Cl`, the melting point turned out to be 78 °C.

For the molecule `O=C1C(Cl)C(CCl)CN1c1cccc(C(F)(F)F)c1` (stereo unspecified), the melting point worked out at 67.7 °C.

Regarding `CCCCCCCCCCOC(=O)CCCCC(=O)OCCCCCCCC`, the melting point is -50 °C.

The molecule `CC1=CC(=O)C(C(=O)OC2CC(C)CCC2C(C)C)C(C)C1C(=O)OC1CC(C)CCC1C(C)C` (stereo unspecified) yielded a melting point of 185 to 186 °C.

As to `CCCCCCc1ccc2ccccc2c1`, the melting point was -3 °C.

`CNC(C)C(O)c1ccc(O)cc1` (stereo unspecified) came in with a melting point of 153 °C.

In turn, `FC(F)(F)c1cccnc1Br` yielded a melting point of 38 °C.

In turn, `c1ccc2c(c1)NCCN2` yielded a melting point of 99 °C.

`CCC(C)C(=O)OC1CCC=C2C=CC(C)C(CCC3CC(O)CC(=O)O3)C21` (stereo unspecified) displayed a melting point of 152 °C.

As for `NCCCNCCN`, the melting point came to 10 °C.
